The values below come from ChEMBL document CHEMBL1127385, “Synthesis and diuretic activity of alkyl- and arylguanidine analogs of N,N'-dicyclohexyl-4-morpholinecarboxamidine in rats and dogs” (J Med Chem, 1994).

For series [1], the system named is Rattus norvegicus. Put plainly: Total electrolytic excretion of chlorine in urine of rats after peroral administration of 3.40 uM/Kg of drug. It is filed as ADME, organism-based. As to conditions: in vivo, po.
In series [2] the test system is Canis familiaris. Put plainly: Total electrolytic excretion of potassium in urine of dogs after peroral administration of 3.40 uM/Kg of drug. It is filed as ADME, organism-based, Canis lupus familiaris. The note with it: dog, in vivo, po.
In series [3] the test system is Canis familiaris. Briefly: Total electrolytic excretion of chlorine in urine of dogs after peroral administration of 3.40 uM/Kg of drug. The note with it: dog, in vivo, po. It is filed as ADME, organism-based, Canis lupus familiaris.
Series [4] relates to Canis familiaris. Briefly: Total electrolytic excretion of sodium in urine of dogs after peroral administration of 3.40 uM/Kg of drug. The series is classed as ADME, organism-based, Canis lupus familiaris. As to conditions: dog, in vivo, po.
Series [5] deals with Rattus norvegicus. Briefly: Total electrolytic excretion of potassium in urine of rats after peroral administration of 3.40 uM/Kg of drug. The note with it: in vivo, po. It is filed as ADME, organism-based.
The test system of series [6] is Rattus norvegicus. Put plainly: Total electrolytic excretion of potassium in urine of rats after peroral administration of 0 uM/Kg of drug. The series is classed as ADME, organism-based. The note with it: in vivo, po.
The test system of series [7] is Rattus norvegicus. Briefly: Tested for the diuretic activity by measuring the urinary volume after peroral administering 10.1 uM/Kg of drug in rats. The note with it: in vivo, po. It is filed as ADME, organism-based, Urine.
For series [8], the system named is Rattus norvegicus. Briefly: Tested for the diuretic activity by measuring the urinary volume after peroral administering 1.01 uM/Kg of drug in rats. It is filed as ADME, organism-based, Urine. As to conditions: in vivo, po.
Series [9] deals with Canis familiaris. Put plainly: Tested for the diuretic activity by measuring the urinary volume after peroral administering 10.1 uM/Kg of drug in dogs. The series is classed as ADME, organism-based, Canis lupus familiaris, Urine. The note with it: dog, in vivo, po.
For series [10], the species on record is Rattus norvegicus. The note with it: in vivo, po.
Description: Total electrolytic excretion of potassium in urine of rats after peroral administration of 10.1 uM/Kg of drug
For series [11], the species on record is Canis familiaris. The note with it: dog, in vivo, po.
Description: Total electrolytic excretion of potassium in urine of dogs after peroral administration of 10.1 uM/Kg of drug
The subject of series [12] is Rattus norvegicus. Put plainly: Tested for the diuretic activity by measuring the urinary volume after peroral administering 0 uM/Kg of drug in rats. The series is classed as ADME, organism-based, Urine. As to conditions: in vivo, po.
Series [13] concerns Rattus norvegicus. Put plainly: Tested for the diuretic activity by measuring the urinary volume after peroral administering 3.40 uM/Kg of drug in rats. It is filed as ADME, organism-based, Urine. The note with it: in vivo, po.
Series [14] deals with Rattus norvegicus. Put plainly: Total electrolytic excretion of chlorine in urine of rats after peroral administration of 34.0 uM/Kg of drug. The series is classed as ADME, organism-based. As to conditions: in vivo, po.
Series [15] deals with Rattus norvegicus. Put plainly: Total electrolytic excretion of sodium in urine of rats after peroral administration of 1.01 uM/Kg of drug. The series is classed as ADME, organism-based. The note with it: in vivo, po.
The subject of series [16] is Rattus norvegicus. Put plainly: Total electrolytic excretion of sodium in urine of rats after peroral administration of 34.0 uM/Kg of drug. The series is classed as ADME, organism-based. As to conditions: in vivo, po.
Series [17] concerns Rattus norvegicus. Briefly: Tested for the diuretic activity by measuring the urinary volume after peroral administering 34.0 uM/Kg of drug in rats. The series is classed as ADME, organism-based, Urine. As to conditions: in vivo, po.
In series [18] the test system is Rattus norvegicus. Put plainly: Total electrolytic excretion of potassium in urine of rats after peroral administration of 34.0 uM/Kg of drug. As to conditions: in vivo, po. The series is classed as ADME, organism-based.
The test system of series [19] is Canis familiaris. Briefly: Tested for the diuretic activity by measuring the urinary volume after peroral administering 3.40 uM/Kg of drug in dogs. It is filed as ADME, organism-based, Canis lupus familiaris, Urine. As to conditions: dog, in vivo, po.
Series [20] deals with Rattus norvegicus. Put plainly: Total electrolytic excretion of sodium in urine of rats after peroral administration of 0 uM/Kg of drug. As to conditions: in vivo, po. The series is classed as ADME, organism-based.
The test system of series [21] is Rattus norvegicus. Put plainly: Total electrolytic excretion of chlorine in urine of rats after peroral administration of 0 uM/Kg of drug. The series is classed as ADME, organism-based. The note with it: in vivo, po.
Series [22] deals with Rattus norvegicus. Put plainly: Total electrolytic excretion of sodium in urine of rats after peroral administration of 3.40 uM/Kg of drug. It is filed as ADME, organism-based. As to conditions: in vivo, po.
Series [23] deals with Rattus norvegicus. Put plainly: Total electrolytic excretion of potassium in urine of rats after peroral administration of 1.01 uM/Kg of drug. The series is classed as ADME, organism-based. The note with it: in vivo, po.
Series [24] has as its system Rattus norvegicus. Briefly: Total electrolytic excretion of chlorine in urine of rats after peroral administration of 65.2 uM/Kg of drug. The series is classed as ADME, organism-based. As to conditions: in vivo, po.
For series [25], the system named is Rattus norvegicus. Briefly: Total electrolytic excretion of chlorine in urine of rats after peroral administration of 217 uM/Kg of drug. The series is classed as ADME, organism-based. As to conditions: in vivo, po.
In series [26] the test system is Rattus norvegicus. Briefly: Total electrolytic excretion of sodium in urine of rats after peroral administration of 21.7 uM/Kg of drug. It is filed as ADME, organism-based. The note with it: in vivo, po.
The subject of series [27] is Rattus norvegicus. Briefly: Total electrolytic excretion of sodium in urine of rats after peroral administration of 217 uM/Kg of drug. It is filed as ADME, organism-based. As to conditions: in vivo, po.
Series [28] has as its system Rattus norvegicus. Briefly: Total electrolytic excretion of potassium in urine of rats after peroral administration of 65.2 uM/Kg of drug. The note with it: in vivo, po. It is filed as ADME, organism-based.
Series [29] has as its system Rattus norvegicus. Put plainly: Ratio of Total electrolytic excretion of sodium and potassium in urine of rats after peroral administration of 217 uM/Kg of drug. It is filed as ADME, organism-based. The note with it: in vivo, po.
For series [30], the system named is Rattus norvegicus. Put plainly: Tested for the diuretic activity by measuring the urinary volume after peroral administering 217 uM/Kg of drug in rats. The series is classed as ADME, organism-based, Urine. As to conditions: in vivo, po.
Series [31] relates to Rattus norvegicus. Briefly: Tested for the diuretic activity by measuring the urinary volume after peroral administering 65.2 uM/Kg of drug in rats. The series is classed as ADME, organism-based, Urine. The note with it: in vivo, po.
The test system of series [32] is Rattus norvegicus. Put plainly: Total electrolytic excretion of sodium in urine of rats after peroral administration of 65.2 uM/Kg of drug. It is filed as ADME, organism-based. The note with it: in vivo, po.
Series [33] relates to Rattus norvegicus. Put plainly: Ratio of Total electrolytic excretion of sodium and potassium in urine of rats after peroral administration of 21.7 uM/Kg of drug. As to conditions: in vivo, po. It is filed as ADME, organism-based.
The subject of series [34] is Rattus norvegicus. Briefly: Total electrolytic excretion of potassium in urine of rats after peroral administration of 217 uM/Kg of drug. It is filed as ADME, organism-based. The note with it: in vivo, po.
The test system of series [35] is Rattus norvegicus. Briefly: Ratio of Total electrolytic excretion of sodium and potassium in urine of rats after peroral administration of 65.2 uM/Kg of drug. It is filed as ADME, organism-based. As to conditions: in vivo, po.
The subject of series [36] is Rattus norvegicus. Put plainly: Total electrolytic excretion of chlorine in urine of rats after peroral administration of 21.7 uM/Kg of drug. The note with it: in vivo, po. It is filed as ADME, organism-based.
Series [37] has as its system Rattus norvegicus. Briefly: Tested for the diuretic activity by measuring the urinary volume after peroral administering 21.7 uM/Kg of drug in rats. It is filed as ADME, organism-based, Urine. As to conditions: in vivo, po.
Series [38] deals with Rattus norvegicus. Briefly: Total electrolytic excretion of potassium in urine of rats after peroral administration of 21.7 uM/Kg of drug. The series is classed as ADME, organism-based. As to conditions: in vivo, po.

For `NS(=O)(=O)c1cc2c(cc1Cl)NCNS2(=O)=O` [HYDROCHLOROTHIAZIDE], the “Excretion Cl-” value with Rattus norvegicus [1] is reported as 1.91 m equiv; in the series with Canis familiaris [3], 17.3 m equiv; in the series on Rattus norvegicus [14] it was 2.17 m equiv; in the series with Rattus norvegicus [21], 0.8 m equiv. The “Excretion K+” value with Canis familiaris [2] came out at 3.3 m equiv; in the series on Rattus norvegicus [5] it was 0.39 m equiv; in the series on Rattus norvegicus [6] it was 0.27 m equiv; in the series filed under Rattus norvegicus [10], 0.37 m equiv; in the series filed under Canis familiaris [11] it was 3.4 m equiv; in the series on Rattus norvegicus [18] it was 0.4 m equiv. The “Excretion K+” value in the series with Rattus norvegicus [23] is given as 0.32 m equiv. Also, the “Excretion Na+” value turned out to be 16.1 m equiv in the series with Canis familiaris [4]; 1.36 m equiv in the series on Rattus norvegicus [15]; 2.03 m equiv in the series on Rattus norvegicus [16]; 0.82 m equiv in the series on Rattus norvegicus [20]; 1.79 m equiv in the series with Rattus norvegicus [22]. For the same compound, the V with Rattus norvegicus [7] worked out at 10.2 mL; in the series on Rattus norvegicus [8], 6.8 mL; in the series with Canis familiaris [9], 85 mL; with Rattus norvegicus [12], 4.4 mL; in the series with Rattus norvegicus [13], 10 mL; in the series on Rattus norvegicus [17], 11.3 mL. Moreover, the V with Canis familiaris [19] turned out to be 76 mL.
On to `Clc1ccc(CN/C(=N/C2CCCCC2)N2CCOCC2)cc1Cl`, for which the “Excretion Cl-” value in the series with Rattus norvegicus [24] came to 1.44 m equiv; in the series on Rattus norvegicus [25], 1.39 m equiv; in the series with Rattus norvegicus [36], 1.05 m equiv. The “Excretion Na+” value with Rattus norvegicus [26] is recorded as 0.96 m equiv; in the series on Rattus norvegicus [27], 1.59 m equiv; in the series with Rattus norvegicus [32], 1.55 m equiv. In addition, the “Excretion K+” value in the series with Rattus norvegicus [28] was 0.26 m equiv; with Rattus norvegicus [34], 0.15 m equiv; with Rattus norvegicus [38] it was 0.25 m equiv. Moreover, the Ratio in the series with Rattus norvegicus [29] turned out to be 10.9; with Rattus norvegicus [33] it was 3.8; with Rattus norvegicus [35], 5.9. The V is 8.7 mL with Rattus norvegicus [30], 9.3 mL with Rattus norvegicus [31] and 6.4 mL in the series with Rattus norvegicus [37].
